Data: patent US11219619B2, “Therapeutic agent for hepatocellular carcinoma” (Eisai R&D Management Co., Ltd., priority 2018, dated 2022)

Assays:
[1] = system: Human-derived hepatocellular carcinoma cell line Hep3B2.1-7; test: Antitumor action against human hepatocellular carcinoma cell line Hep3B2.1-7 transplanted subcutaneously in nude mice; assay type: in vivo; conditions: Hep3B2.1-7 xenograft
Description: (§1) Five nude mice (CAnN.Cg-Foxnlnu/CrlCrlj, female, CHARLES RIVER LABORATORIES JAPAN, INC.) were used in each group, and the antitumor effect in a case where compound A was administered was evaluated.
(§2) Human-derived hepatocellular carcinoma cell line Hep3B2.1-7 (obtained from ATCC) cells were suspended in a Hank's Balanced Salt Solution (HBSS) so that the concentration of the cells was 4×10^7 cells/mL. Into the suspension, Matrigel™ Matrix (Becton, Dickinson and Company, Japan) in the same volume as that of the suspension was added, and the obtained mixture was sufficiently mixed. The mixture in an amount of 0.1 mL was transplanted into the subcutaneous part in the right flank of each mouse, and the mouse was subjected to the antitumor effect evaluation.
(§3) On 19 days after the transplantation, the longest diameter and the short axis of the tumor were measured with an electronic digital caliper (Digimatic™ Caliper, Mitutoyo Corporation). The mice were divided into groups so that the average values of the tumor volumes in the respective groups were substantially equal to each other. In addition, the tumor volume was calculated in accordance with the following equation. Tumor volume (mm^3)=longest diameter (mm)×short axis (mm)×short axis (mm)/2
Compound A was dissolved in purified water so that the concentration of compound A was 5 mg/mL.
(§4) Compound A was administered to each of the mice in the respective groups at a dose of 100 mg/kg once daily for 5 days. After that, compound A was withdrawn for 2 days, and then administered orally for 4 days. In this regard, the volume to be administered was set to 20 mL/kg, and to the control group, purified water in the same volume was administered.

[2] = system: Human-derived hepatocellular carcinoma cell line HuH-7; test: Antitumor action against human hepatocellular carcinoma cell line HuH-7 transplanted subcutaneously in nude mice; assay type: in vivo; conditions: HuH-7 xenograft
Description: as §1
as §2, with “HuH-7” for “Hep3B2.1-7”, “JCRB Cell Bank)” for “ATCC)”, “DMEM medium (Wako Pure Chemical Industries, Ltd.) containing 10% bovine serum” for “Hank's Balanced Salt Solution (HBSS)”, “8.0×10^7” for “4×10^7”
as §3, with “11” for “19”, “nearly” for “substantially”
Compound A was dissolved in purified water so that the concentration of compound A was 2.5 mg/mL.
as §4, with “50” for “100”, “3” for “4”

[3] = system: Human-derived hepatocellular carcinoma cell line SNU-398; test: Antitumor action against human hepatocellular carcinoma cell line SNU-398 transplanted subcutaneously in nude mice; assay type: in vivo; conditions: SNU-398 xenograft
Description: as §1
as §2, with “SNU-398” for “Hep3B2.1-7”, “HBSS” for “Hank's Balanced Salt Solution (HBSS)”, “5×10^7” for “4×10^7”
as §3, with “9” for “19”, “nearly” for “substantially”
Compound A was dissolved in purified water so that the concentration of compound A was […] or 2.5 mg/mL.
Compound A was administered orally to each of the mice in the respective groups at a dose of 25 mg/kg or 50 mg/kg once daily for 11 days. In this regard, the volume to be administered was set to 20 mL/kg. The control group was untreated.

[4] = system: Li-7; test: Proliferation of hepatocellular carcinoma cell line Li-7 (CellTiter Glo-2.0); assay type: cell-based; conditions: Homo sapiens, 144 h; Li-7, cultured for 6 days, 10% FBS
Description: (§5) As the human hepatocellular carcinoma cell line, SNU-398, Li-7, Hep3B2.1-7, and HuH-7 were used. In this regard, SNU-398, and Hep3B2.1-7 were obtained from American Type Culture Collection (ATCC), Li-7 was obtained from Cell Resource Center for Biomedical Research, Institute of Development, Aging and Cancer, Tohoku University, and HuH-7 was obtained from JCRB Cell Bank, respectively.
(§6) For each cell line, maintenance culture was performed by using the following medium.
(§7) An RPMI-1640 medium (Wako Pure Chemical Industries, Ltd.) containing 10% fetal bovine serum (FBS) and penicillin/streptomycin […]
(§8) The number of cells in each well after the culture was calculated by measuring the intracellular ATP level with the emission intensity using CellTiter Glo-2.0 (Promega Corporation, catalog number: G9243).
(§9) CellTiter Glo-2.0 was added in an amount of 50 μL into each well, and the mixture was mixed for 10 minutes with a plate mixer. After that, the mixture was allowed to react at room temperature for 10 minutes, and then the luminescence was measured with Multilabel Reader (ARVO X4, PerkinElmer, Inc.) The luminescence value ratio in the presence of a compound A was determined, assuming that the luminescence value in a case where Compound A had not added was set to 100% and the luminescence value in a well where cells had not been present was set to 0%. […]

[5] = system: Hep3B2.1-7; test: Proliferation of hepatocellular carcinoma cell line Hep3B2.1-7 (CellTiter Glo-2.0); assay type: cell-based; conditions: Homo sapiens, 144 h; Hep3B2.1-7, cultured for 6 days, 10% FBS
Description: as §5, §6
An EMEM medium (Wako Pure Chemical Industries, Ltd.) containing 10% FBS and penicillin/streptomycin […]
as §8, §9

[6] = system: HuH-7; test: Proliferation of hepatocellular carcinoma cell line HuH-7 (CellTiter Glo-2.0); assay type: cell-based; conditions: Homo sapiens, 144 h; HuH-7, cultured for 6 days, 10% FBS
Description: as §5, §6
A DMEM-low glucose medium (Wako Pure Chemical Industries, Ltd.) containing 10% FBS and penicillin/streptomycin […]
as §8, §9

[7] = system: SNU-398; test: Proliferation of hepatocellular carcinoma cell line SNU-398 (CellTiter Glo-2.0); assay type: cell-based; conditions: Homo sapiens, 144 h; SNU-398, cultured for 6 days, 10% FBS
Description: as §5, §6, §7, §8, §9

[8] = Day 0 (baseline), 50 mg/kg group

`CNC(=O)n1ccc2cc(Oc3ccnc(NC(=O)c4ccc(C5CCN(CCO)CC5)cc4)c3)c(OCCOC)cc21` [Compound A, 5-((2-(4-(1-(2-hydroxyethyl)piperidin-4-yl)benzamide)pyridin-4-yl)oxy)-6-(2-methoxyethoxy)-N-methyl-1H-indole-1-carboxamide sesquisuccinate] showed a Tumor volume ([1]; Day 0 (baseline), 100 mg/kg group) of 417.4 mm^3, a Tumor volume ([1]; Day 3, 100 mg/kg once daily, oral) of 504.0 mm^3 and a Tumor volume ([1]; Day 7, 100 mg/kg once daily for 5 days, withdrawn 2 days) of 630.4 mm^3. The Tumor volume ([1]; Day 11, 100 mg/kg once daily for 5 days, withdrawn 2 days, then 4 days, oral) was 862.3 mm^3, the Tumor volume [2, 8] was 148.1 mm^3 and the Tumor volume ([2]; Day 3, 50 mg/kg once daily, oral) was 409.2 mm^3. The Tumor volume ([2]; Day 7, 50 mg/kg once daily for 5 days, withdrawn 2 days) was 939.9 mm^3, the Tumor volume ([2]; Day 10, 50 mg/kg once daily for 5 days, withdrawn 2 days, then 3 days, oral) was 1400.9 mm^3 and the “Increase in the tumor volume” value ([3]; 25 mg/kg or 50 mg/kg once daily for 11 days, oral) was “suppressed in a dose-dependent manner”. The Tumor volume ([3]; Day 0 (baseline), 25 mg/kg group) was 154.5 mm^3, the Tumor volume [3, 8] was 153.9 mm^3 and the Tumor volume ([3]; Day 4, 25 mg/kg once daily, oral) was 516.4 mm^3. It also gave a Tumor volume ([3]; Day 4, 50 mg/kg once daily, oral) of 443.2 mm^3, a Tumor volume ([3]; Day 7, 25 mg/kg once daily, oral) of 942.2 mm^3 and a Tumor volume ([3]; Day 7, 50 mg/kg once daily, oral) of 779.0 mm^3. It also gave a Tumor volume ([3]; Day 11, 25 mg/kg once daily for 11 days, oral) of 1280.1 mm^3, a Tumor volume ([3]; Day 11, 50 mg/kg once daily for 11 days, oral) of 1066.1 mm^3 and an IC50 [4] of 0.063 µM. The IC50 [5] was 0.077 µM, the IC50 [6] was 0.249 µM and the IC50 [7] was 0.026 µM.
